Data as given in patent US4880817A, “O-functionalized derivatives of substituted isoquinolin-3-ols having cardiotonic and/or phosphodiesterase fraction III inhibiting properties and/or renal vasodilating properties” (Ortho Pharmaceutical Corporation, priority 1987, dated 1989).

tested on: adult mongrel dogs; assay: Renal vasodilating activity in anesthetized dogs; assay type: in vivo, mongrel dog; conditions: Canis lupus familiaris, read-out: HR: percent change in heart rate, dose 1.2 mpk, relative to controls
Method: Goldberg et al., J. Pharmacol. Exp. Ther., 163, 188 (1968), performed an investigation of the structural requirements for dopamine-like renal vasodilation of phenethylamines and apomorphine. The following procedure is a variation of the assay described in that report.
Adult mongrel dogs were anesthetized and surgically prepared for electromagnetic measurement of renal artery blood flow. A carotid artery was cannulated for measuring arterial blood pressure and drugs were administered intravenously or intraarterially (via the renal artery). Heart rate was monitored with a cardiotachometer. Renal vascular resistance was calculated as the ratio of mean arterial blood pressure to renal artery blood flow. Dopamine was infused intravenously at 3 μg/kg/min for ten minutes (at an infusion rate of about 1 ml/min) to determine responsiveness of each dog to renal dopamine receptor stimulation. Cumulative dose-response data were obtained by infusing a compound of this invention at progressively increasing (usually three-fold) infusion rates, each dose being infused for five minutes. The maximum percent change from pre-drug control in renal artery blood flow (or in renal vascular resistance) was determined for each infusion dose.
RBF, RVR, MABP, and HR values are percent changes in renal blood flow, renal vascular resistance, mean arterial blood pressure, and heart rate, respectively, relative to control values.

Point of comparison: `C=CCNC(=O)Nc1c(OC(=O)N2CCN(C(=O)OC(C)(C)C)CC2)nc(C)c2cc(OC)c(OC)cc12` [Cmpd 75], change in vivo at 1.2 mg/kg 12%. Against it:
- C=CCNC(=O)Nc1c(OC(=O)N(C)C)nc(C)c2cc(OC)c(OC)cc12 [Cmpd 67] — lower, 0%
- CCCCNC(=O)Nc1c(OC(=O)N2CCN(C(=O)OC(C)(C)C)CC2)nc(C)c2cc(OC)c(OC)cc12 [Cmpd 76] — lower, -9%

same assay, conditions: Canis lupus familiaris, read-out: HR: percent change in heart rate, dose 6.2 mpk, relative to controls

Point of comparison: `CCCCNC(=O)Nc1c(OC(=O)N(CC)CC)nc(C)c2cc(OC)c(OC)cc12` [Cmpd 38, 4-[N'-(n-Butylureido)]-3-diethylcarbamyloxy-6,7-dimethoxy-1-methylisoquinoline], change in vivo at 6.2 mg/kg -4%. Against it:
- CCOc1cc2c([N+](=O)[O-])c(OC(=O)N(C)C)nc(C)c2cc1OC [Cmpd 24] — higher, 53%
- COc1cc2c(C)nc(OC(=O)N3CCCC3)c([N+](=O)[O-])c2cc1OC [Cmpd 52] — higher, 0%
- CCOc1cc2c(C)nc(OC(=O)N3CCN(C(=O)OC(C)(C)C)CC3)c([N+](=O)[O-])c2cc1OC [Cmpd 69] — higher, 21%

same assay, conditions: Canis lupus familiaris, read-out: MABP: percent change in mean arterial blood pressure, dose 1.2 mpk, relative to controls

Point of comparison: `CCCCNC(=O)Nc1c(OC(=O)N2CCN(C(=O)OC(C)(C)C)CC2)nc(C)c2cc(OC)c(OC)cc12` [Cmpd 76], change in vivo at 1.2 mg/kg -2%. Against it:
- C=CCNC(=O)Nc1c(OC(=O)N2CCN(C(=O)OC(C)(C)C)CC2)nc(C)c2cc(OC)c(OC)cc12 [Cmpd 75] — higher, 9%

same assay, conditions: Canis lupus familiaris, read-out: MABP: percent change in mean arterial blood pressure, dose 6.2 mpk, relative to controls

Point of comparison: `COc1cc2c(C)nc(OC(=O)N3CCCC3)c([N+](=O)[O-])c2cc1OC` [Cmpd 52], change in vivo at 6.2 mg/kg -15%. Against it:
- CCOc1cc2c([N+](=O)[O-])c(OC(=O)N(C)C)nc(C)c2cc1OC [Cmpd 24] — higher, -12%
- CCCCNC(=O)Nc1c(OC(=O)N(CC)CC)nc(C)c2cc(OC)c(OC)cc12 [Cmpd 38, 4-[N'-(n-Butylureido)]-3-diethylcarbamyloxy-6,7-dimethoxy-1-methylisoquinoline] — higher, 5%
- CCOc1cc2c(C)nc(OC(=O)N3CCN(C(=O)OC(C)(C)C)CC3)c([N+](=O)[O-])c2cc1OC [Cmpd 69] — higher, 6%

same assay, conditions: Canis lupus familiaris, read-out: RBF: percent change in renal blood flow, dose 1.2 mpk, relative to controls

Point of comparison: `CCCCNC(=O)Nc1c(OC(=O)N2CCN(C(=O)OC(C)(C)C)CC2)nc(C)c2cc(OC)c(OC)cc12` [Cmpd 76], change in vivo at 1.2 mg/kg 23%. Against it:
- C=CCNC(=O)Nc1c(OC(=O)N2CCN(C(=O)OC(C)(C)C)CC2)nc(C)c2cc(OC)c(OC)cc12 [Cmpd 75] — higher, 27%

same assay, conditions: Canis lupus familiaris, read-out: RBF: percent change in renal blood flow, dose 6.2 mpk, relative to controls

Point of comparison: `CCCCNC(=O)Nc1c(OC(=O)N(CC)CC)nc(C)c2cc(OC)c(OC)cc12` [Cmpd 38, 4-[N'-(n-Butylureido)]-3-diethylcarbamyloxy-6,7-dimethoxy-1-methylisoquinoline], change in vivo at 6.2 mg/kg 34%. Against it:
- CCOc1cc2c([N+](=O)[O-])c(OC(=O)N(C)C)nc(C)c2cc1OC [Cmpd 24] — lower, 22%
- COc1cc2c(C)nc(OC(=O)N3CCCC3)c([N+](=O)[O-])c2cc1OC [Cmpd 52] — higher, 41%
- CCOc1cc2c(C)nc(OC(=O)N3CCN(C(=O)OC(C)(C)C)CC3)c([N+](=O)[O-])c2cc1OC [Cmpd 69] — lower, 24%

same assay, conditions: Canis lupus familiaris, read-out: RVR: percent change in renal vascular resistance, dose 1.2 mpk, relative to controls

Point of comparison: `C=CCNC(=O)Nc1c(OC(=O)N2CCN(C(=O)OC(C)(C)C)CC2)nc(C)c2cc(OC)c(OC)cc12` [Cmpd 75], change in vivo at 1.2 mg/kg -15%. Against it:
- CCCCNC(=O)Nc1c(OC(=O)N2CCN(C(=O)OC(C)(C)C)CC2)nc(C)c2cc(OC)c(OC)cc12 [Cmpd 76] — lower, -22%

same assay, conditions: Canis lupus familiaris, read-out: RVR: percent change in renal vascular resistance, dose 6.2 mpk, relative to controls

Point of comparison: `CCOc1cc2c([N+](=O)[O-])c(OC(=O)N(C)C)nc(C)c2cc1OC` [Cmpd 24], change in vivo at 6.2 mg/kg -28%. Against it:
- CCCCNC(=O)Nc1c(OC(=O)N(CC)CC)nc(C)c2cc(OC)c(OC)cc12 [Cmpd 38, 4-[N'-(n-Butylureido)]-3-diethylcarbamyloxy-6,7-dimethoxy-1-methylisoquinoline] — higher, -21%
- COc1cc2c(C)nc(OC(=O)N3CCCC3)c([N+](=O)[O-])c2cc1OC [Cmpd 52] — lower, -37%
- CCOc1cc2c(C)nc(OC(=O)N3CCN(C(=O)OC(C)(C)C)CC3)c([N+](=O)[O-])c2cc1OC [Cmpd 69] — higher, -14%

same assay, conditions: dose 1.2 mpk, relative to controls, 1.2 mg/kg

For `C=CCNC(=O)Nc1c(OC(=O)N(C)C)nc(C)c2cc(OC)c(OC)cc12` [Cmpd 40], the “MABP: percent change in mean arterial blood pressure” value was -1 percent change.

`C=CCNC(=O)Nc1c(OC(=O)N(C)C)nc(C)c2cc(OC)c(OC)cc12` [Cmpd 40] was tested, and the “RBF: percent change in renal blood flow” value was “+9 percent change”.
In the case of `C=CCNC(=O)Nc1c(OC(=O)N(C)C)nc(C)c2cc(OC)c(OC)cc12` [Cmpd 67], the “RBF: percent change in renal blood flow” value is reported as “+50 percent change”.

Point of comparison: `C=CCNC(=O)Nc1c(OC(=O)N(C)C)nc(C)c2cc(OC)c(OC)cc12` [Cmpd 67], “RVR: percent change in renal vascular resistance” value -28 percent change. Against it:
- C=CCNC(=O)Nc1c(OC(=O)N(C)C)nc(C)c2cc(OC)c(OC)cc12 [Cmpd 40] — higher, -9 percent change

With `C=CCNC(=O)Nc1c(OC(=O)N(C)C)nc(C)c2cc(OC)c(OC)cc12` [Cmpd 67] the “MABP: percent change in mean arterial blood pressure” value was “+7 percent change”.
